# Laboratory results from patent publication US11766405B2 (MEDAC GESELLSCHAFT FUR KLINISCHE SPEZIALPRAPARATE MBH, priority 2013, dated 2023).
# “And” between values parts separate entries of the source, which are not always exact repeats. Equal values may be shown once.
# Tests used:
# Type in all cases: physicochemical
# [1] = HPLC determination of impurities / mitomycin purity, process 2 (UV 254 nm)
# Protocol: Column: YMC-Pack Phenyl 4.6 mm×300 mm, 10 μm […]
# Purity determinations according to process 2 were performed at different times. […]
# [2] = Mitomycin C content, process 3 (content process Ph Eur 8.0 Mitomycin Monograph); details: for Mitomycin C content: process 3; for Mitomycin content: No. 6: DMSO/DMAA 5.7/94.3 wt.-%, 0.53 mg/g mitomycin C, 8.0 mg/g urea, room temperature, exclusion of light
# Protocol: (§1) The solutions were stored at room temperature and with exclusion of light for a period of up to 71.5 hours.
# Process 3 corresponds to the content process according to Ph Eur 8.0 Mitomycin Monograph January 2008: 1655. Process 4 corresponds to the impurities process according to Ph Eur 8.0 Mitomycin Monograph January 2008: 1655. […]
# [3] = Impurities / purity, process 4 (impurities process Ph Eur 8.0 Mitomycin Monograph); details: for Impurity albomitomycin C / Sum of all impurities: Example 13 urea lyophilisate, process 4; for Mitomycin purity: No. 7: DMSO 100 wt.-%, 1.82 mg/g mitomycin C, 27.3 mg/g urea, room temperature, exclusion of light
# Protocol: The composition according to the invention comprises the impurities D1, D2 and albomitomycin C in a total quantity of in particular less than 2.0%, preferably less than 1.5%, particularly preferably less than 1.0%, more preferably less than 0.8% and quite particularly preferably less than 0.6%, wherein the quantity of these impurities is determined according to the impurities process according to Ph Eur 8.0 Mitomycin Monograph January 2008: 1655. In the examples, this determination process is also referred to as process 4.
# as §1
# Process 3 corresponds to the content process according to Ph Eur 8.0 Mitomycin Monograph January 2008: 1655. Process 4 corresponds to the impurities process according to Ph Eur 8.0 Mitomycin Monograph January 2008: 1655.
# (§2) The reconstitution was effected with 20 and 40 ml respectively of isotonic saline solution to an end concentration of 1 mg/ml.
# [4] = Reconstitution time of lyophilisates; details: Example 13 urea lyophilisate
# Protocol: Moreover, the lyophilisates could be completely reconstituted with isotonic saline solution in very much less than 30 secs.
# In addition, the reconstitution time was determined.
# as §2
# [5] = 20 mg mitomycin C, 40° C. and 75% r.h., t = 3 months
# [6] = 20 mg mitomycin C, 40° C. and 75% r.h., t = 6 months
# [7] = 40 mg mitomycin C, 40° C. and 75% r.h., t = 3 months
# [8] = 40 mg mitomycin C, 40° C. and 75% r.h., t = 6 months
smiles,measurement,setting,value
"CO[C@@]12[C@H](COC(N)=O)C3=C(C(=O)C(C)=C(N)C3=O)N1C[C@@H]1N[C@@H]12 [Mitomycin C, (1aS,8S,8aR,8bS)-6-amino-8-[[(aminocarbonyl)oxy]methyl]-1,1a,2,8,8a,8b-hexahydro-8a-methoxy-5-methyl-azirino[2′,3′:3,4]pyrrolo[1,2-a]indol-4,7-dione]",Mitomycin purity,[1],98.86% and 96.77% and 97.04%
same,Mitomycin purity,"[1]; Example 5 solution: 3.33 mg/g mitomycin C, 5 wt.-% urea, 89/11 wt.-% tert.-butanol/water, 5° C. with exclusion of light, t = 0",99.23%
same,Mitomycin purity,"[1]; Example 5 solution: 3.33 mg/g mitomycin C, 5 wt.-% urea, 89/11 wt.-% tert.-butanol/water, 5° C. with exclusion of light, t = 6 h",99.18%
same,Mitomycin purity,"[1]; Example 5 solution: 3.33 mg/g mitomycin C, 5 wt.-% urea, 89/11 wt.-% tert.-butanol/water, 5° C. with exclusion of light, t = 24 h",99.20%
same,Mitomycin purity,"[1]; Example 5 solution: 3.33 mg/g mitomycin C, 5 wt.-% urea, 89/11 wt.-% tert.-butanol/water, 5° C. with exclusion of light, t = 72 h",98.80%
same,Mitomycin purity,"[1]; Example 5 solution: 3.33 mg/g mitomycin C, 5 wt.-% urea, 89/11 wt.-% tert.-butanol/water, 5° C. with exclusion of light, t = 9 d",98.21%
same,Mitomycin purity,"[1]; Example 5 solution: 3.33 mg/g mitomycin C, 5 wt.-% urea, 89/11 wt.-% tert.-butanol/water, RT with exclusion of light, t = 0",99.33%
same,Mitomycin purity,"[1]; Example 5 solution: 3.33 mg/g mitomycin C, 5 wt.-% urea, 89/11 wt.-% tert.-butanol/water, RT with exclusion of light, t = 6 h",98.83%
same,Mitomycin purity,"[1]; Example 5 solution: 3.33 mg/g mitomycin C, 5 wt.-% urea, 89/11 wt.-% tert.-butanol/water, RT with exclusion of light, t = 24 h",97.80%
same,Mitomycin purity,"[1]; Example 5 solution: 3.33 mg/g mitomycin C, 5 wt.-% urea, 89/11 wt.-% tert.-butanol/water, RT with exclusion of light, t = 72 h",96.74%
same,Mitomycin purity,"[1]; Example 5 solution: 3.33 mg/g mitomycin C, 5 wt.-% urea, 89/11 wt.-% tert.-butanol/water, RT with exclusion of light, t = 9 d",96.35%
same,Mitomycin purity,"[1]; Example 5 solution: 3.33 mg/g mitomycin C, 5 wt.-% urea, 89/11 wt.-% tert.-butanol/water, RT without protection against light, t = 0",99.32%
same,Mitomycin purity,"[1]; Example 5 solution: 3.33 mg/g mitomycin C, 5 wt.-% urea, 89/11 wt.-% tert.-butanol/water, RT without protection against light, t = 6 h",98.83%
same,Mitomycin purity,"[1]; Example 5 solution: 3.33 mg/g mitomycin C, 5 wt.-% urea, 89/11 wt.-% tert.-butanol/water, RT without protection against light, t = 24 h",97.60%
same,Mitomycin purity,"[1]; Example 5 solution: 3.33 mg/g mitomycin C, 5 wt.-% urea, 89/11 wt.-% tert.-butanol/water, RT without protection against light, t = 72 h",96.14%
same,Mitomycin purity,"[1]; Example 5 solution: 3.33 mg/g mitomycin C, 5 wt.-% urea, 89/11 wt.-% tert.-butanol/water, RT without protection against light, t = 9 d",95.78%
same,Mitomycin C purity,"[1]; Example 7 solution: 1.33 mg/g mitomycin C, 20 mg/g urea, 89/11 wt.-% tert.-butanol/water, 5° C. with exclusion of light, t = 27 h",99.7%
same,Mitomycin C purity,"[1]; Example 7 solution: 1.33 mg/g mitomycin C, 20 mg/g urea, 89/11 wt.-% tert.-butanol/water, RT with exclusion of light, t = 5 h",99.7%
same,Mitomycin C purity,"[1]; Example 7 solution: 1.33 mg/g mitomycin C, 20 mg/g urea, 89/11 wt.-% tert.-butanol/water, RT with exclusion of light, t = 22 h",99.2%
same,Mitomycin C purity,"[1]; Example 7 solution: 1.33 mg/g mitomycin C, 20 mg/g urea, 89/11 wt.-% tert.-butanol/water, RT with exclusion of light, t = 27 h",98.9%
same,Mitomycin C purity,"[1]; Example 8 solution: 1.67 mg/g mitomycin C, 25 mg/g urea, 89/11 wt.-% tert.-butanol/water, RT with exclusion of light, t = 5 h",99.6%
same,Mitomycin C purity,"[1]; Example 8 solution: 1.67 mg/g mitomycin C, 25 mg/g urea, 89/11 wt.-% tert.-butanol/water, RT with exclusion of light, t = 22 h",99.1%
same,Mitomycin C purity,"[1]; Example 8 solution: 1.67 mg/g mitomycin C, 25 mg/g urea, 89/11 wt.-% tert.-butanol/water, RT with exclusion of light, t = 27 h",98.6%
same,Mitomycin C content,"[2]; Example 13 urea lyophilisate, 20 mg mitomycin C, 40° C. and 75% r.h., t = 3 months",98.2%
same,Mitomycin C content,"[2]; Example 13 urea lyophilisate, 20 mg mitomycin C, 40° C. and 75% r.h., t = 6 months",98.3%
same,Mitomycin C content,"[2]; Example 13 urea lyophilisate, 20 mg mitomycin C, t = 0",97.8%
same,Mitomycin C content,"[2]; Example 13 urea lyophilisate, 40 mg mitomycin C, 40° C. and 75% r.h., t = 3 months",96.6%
same,Mitomycin C content,"[2]; Example 13 urea lyophilisate, 40 mg mitomycin C, 40° C. and 75% r.h., t = 6 months",96.7%
same,Mitomycin C content,"[2]; Example 13 urea lyophilisate, 40 mg mitomycin C, t = 0",97.2%
same,Mitomycin C content,"[2]; Example 14 urea lyophilisate (20 mg) reconstituted with water for injection, end concentration 1 mg/ml",100.6%
same,Mitomycin C content,"[2]; Example 14 urea lyophilisate (20 mg) reconstituted with water for injection, end concentration 2 mg/ml",100.6%
same,Mitomycin content,[2]; t = 0,100%
same,Mitomycin content,[2]; t = 6.5 h,99.93%
same,Mitomycin content,[2]; t = 14.5 h,99.62%
same,Mitomycin content,[2]; t = 21 h,98.84%
same,Mitomycin content,[2]; t = 42 h,99.11%
same,Mitomycin content,[2]; t = 71.5 h,98.58%
same,Impurity albomitomycin C,[3]; [5],0.20%
same,Sum of all impurities,[3]; [5],0.55%
same,Impurity albomitomycin C,[3]; [6],0.26%
same,Sum of all impurities,[3]; [6],0.61%
same,Impurity albomitomycin C,"[3]; 20 mg mitomycin C, t = 0",0.29%
same,Sum of all impurities,"[3]; 20 mg mitomycin C, t = 0",0.29%
same,Impurity albomitomycin C,[3]; [7],0.22%
same,Sum of all impurities,[3]; [7],0.55
same,Impurity albomitomycin C,[3]; [8],0.21%
same,Sum of all impurities,[3]; [8],0.58
same,Impurity albomitomycin C,"[3]; 40 mg mitomycin C, t = 0",0.32%
same,Sum of all impurities,"[3]; 40 mg mitomycin C, t = 0",0.32
same,Mitomycin purity,[3]; t = 0,100%
same,Mitomycin purity,[3]; t = 4 h,99.31%
same,Mitomycin purity,[3]; t = 6.5 h,99.32%
same,Mitomycin purity,[3]; t = 13 h,99.19%
same,Mitomycin purity,[3]; t = 20 h,99.36%
same,Mitomycin purity,[3]; t = 26.5 h,99.32%
same,Reconstitution time,"[4]; 20 mg mitomycin C, 20 ml isotonic saline to 1 mg/ml, 40° C. and 75% r.h., t = 3 months",12 s
same,Reconstitution time,"[4]; 20 mg mitomycin C, 20 ml isotonic saline to 1 mg/ml, 40° C. and 75% r.h., t = 6 months",17 s
same,Reconstitution time,"[4]; 20 mg mitomycin C, 20 ml isotonic saline to 1 mg/ml, t = 0",7 s
same,Reconstitution time,"[4]; 40 mg mitomycin C, 40 ml isotonic saline to 1 mg/ml, 40° C. and 75% r.h., t = 3 months",20 s
same,Reconstitution time,"[4]; 40 mg mitomycin C, 40 ml isotonic saline to 1 mg/ml, 40° C. and 75% r.h., t = 6 months",18 s
same,Reconstitution time,"[4]; 40 mg mitomycin C, 40 ml isotonic saline to 1 mg/ml, t = 0",6 s
